Laboratory results from paper PMC12172083, “Identification of a novel and high affinity MIF inhibitor via structure-based pharmacophore modelling, molecular docking, molecular dynamics simulations, and biological evaluation” (Journal of Enzyme Inhibition and Medicinal Chemistry, 2025).

Tests used:
[1] = system: RAW 264.7 macrophages; assay: RT-qPCR of LPS-induced proinflammatory gene expression; format: cell-based, murine; details: mRNA, LPS 200 ng/mL 6 h, then 300 nM compound 30 min
Text: All chemicals were purchased from commercial suppliers without additional purification required. […] Hits 1–6 compounds were obtained from WuXi AppTec (Shanghai, China) with a purity exceeding 98%. The high-performance liquid chromatography (HPLC) spectra data for each compound were provided in the Supplementary Materials (Figures S2.1–2.6). RAW 264.7 murine macrophages were purchased from the American Type Culture Collection (ATCC, TIB-71). 10% foetal bovine serum (FBS), 100 units/mL of penicillin, and 100 µg/mL of streptomycin were added to the Dulbecco’s modified Eagle’s medium (DMEM). The FBS, penicillin, streptomycin, and DMEM were purchased from Gibco (Grand Island, NY, USA). The cells were cultured in the incubator that was humidified with 5% CO2 and 95% air at 37 °C. The human recombinant MIF was purchased from Abcam (Cambridge, MA, USA) and catalogue number was ab51096. This experiment was carried out in accordance with the relevant literature. […] RAW 264.7 macrophages were subjected to treatment with LPS at a concentration of 200 ng/mL for 6 h. […] The Trizol method was used to extract the total ribonucleic acid (RNA) from the cells. The RNA reverse transcription kit (Invitrogen) was used to synthesise complementary deoxyribonucleic acid (cDNA) according to the manufacturer’s instructions. The SYRB Green qPCR kit and the primers were used for amplification. Thereafter, to standardise the data, the expression levels of the target genes were normalised to GAPDH and calculated by using the 2^−ΔΔCT method. The expression data were presented in the format of fold-change for clear visualisation.

[2] = system: MIF; design: method as in PMID 34153665, PMID 33823428; details: cited from earlier work
[3] = molecular target: T1, MIF (Homo sapiens, UniProt P14174); assay: ITC assay, binding affinity to MIF; details: 25 °C, pH 7.5, mean ± SD
T1 construct: purchased Abcam ab51096
T1 sequence (P14174 2-115 limits assumed): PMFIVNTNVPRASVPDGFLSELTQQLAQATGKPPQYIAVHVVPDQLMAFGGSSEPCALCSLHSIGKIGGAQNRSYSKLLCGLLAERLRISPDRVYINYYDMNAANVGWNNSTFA
Procedure: (§1) All chemicals were purchased from commercial suppliers without additional purification required. […] The high-performance liquid chromatography (HPLC) spectra data for each compound were provided in the Supplementary Materials (Figures S2.1–2.6). RAW 264.7 murine macrophages were purchased from the American Type Culture Collection (ATCC, TIB-71). 10% foetal bovine serum (FBS), 100 units/mL of penicillin, and 100 µg/mL of streptomycin were added to the Dulbecco’s modified Eagle’s medium (DMEM). The FBS, penicillin, streptomycin, and DMEM were purchased from Gibco (Grand Island, NY, USA). The cells were cultured in the incubator that was humidified with 5% CO2 and 95% air at 37 °C. The human recombinant MIF was purchased from Abcam (Cambridge, MA, USA) and catalogue number was ab51096.

[4] = molecular target: T2, MIF-CD74 binding (Homo sapiens, UniProt P14174); assay: Pull down assay of GST-MIF with CD74; details: 40 nM biotin-Hit-1; 100 nM and 200 nM CD74; western blot
T2 sequence (P14174 1-115): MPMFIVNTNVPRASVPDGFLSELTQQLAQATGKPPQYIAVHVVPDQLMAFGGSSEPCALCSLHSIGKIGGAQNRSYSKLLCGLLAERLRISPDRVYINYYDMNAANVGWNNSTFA
Procedure: The pull down experiment was executed as described previously[36] and in line with defined standard principles. The pre-washed beads with purified GST-MIF were incubated for 2 h at 4 °C. The sample was centrifuged at 10 000 rpm and the purified protein was transferred to a new Eppendorf (EP) tube to remove non-specifically bound background proteins. The 40 nM of biotin-Hit-1 was added to the purified protein for incubation. […] The beads were washed five times with PBST. The proteins were denatured at 100 °C for 5 min. The protein bands were isolated and segregated via sodium dodecyl sulphate-polyacrylamide gel electrophoresis (SDS-PAGE) technique. The polyvinylidene fluoride (PVDF) membrane was pre-soaked in methanol. The protein bands were transferred onto the PVDF membrane under the condition of 200 mA. The membrane was blocked by incubating it with 3% bovine serum albumin (BSA) in PBS at 37 °C for 2 h. After every incubation period ended, the membrane was washed three times successively with PBST, with each washing step taking 10 min. Subsequently, the membrane was subjected to incubating with the primary antibody on a shaker overnight at 4 °C. […] Thereafter, the light signal was detected by a sophisticated detection system. Employing the Image J software, the intensity of the bands was quantified.

[5] = molecular target: T1, MIF; assay: MST assay, binding affinity to MIF; details: mean ± SD
Procedure: as §1
The MST assay was used to measure the Kd value, aiming to assess the binding affinity between small molecules and targeted proteins in the field of drug discovery. […] The degree of labelling (DOL) of the MIF protein was calculated. The ideal DOL was in the range of 0.5–1. The Monolith™ RED-NHS second-generation protein labelling kit (NanoTemper Technologies) was used for the fluorescent labelling of MIF protein. We strictly followed the instructions of the kit for the experiment. The PBST (Phosphate-Buffered Saline with Tween) solution containing 0.05% Tween 20 was configured. The ligand was diluted into 16 concentration gradients using the semi-dilution method. The fluorescently labelled protein was added and thoroughly mixed, then incubated for 5 min in the dark. The solution was taken by capillary tube and assayed with the Monolith NT.115 instrument (NanoTemper Technologies). Subsequently, the difference was recorded in fluorescence intensity. The fluorescence intensity was plotted against the concentration of the hit compounds to generate a fluorescence dose curve, following which the Kd value was calculated.

With Oc1ccc(-n2cc(-c3ccc4ccccc4n3)nn2)cc1 [Hit 3a, reference compound] the “Reduction of TNF-α level compared with the LPS group” value [1] was 2.2 fold.

For COc1ccc(-c2cc(C)nc(SCc3cccc(C(=O)O)c3)n2)cc1 [Hit Z-312, 3-({[4-(4-methoxyphenyl)-6-methyl-2-pyrimidinyl]thio}1methyl)benzoic acid], the “Release of pro-inflammatory factors induced by LPS (TNF-α, IL-6, IL-1β)” value [2] is given as “suppress the release”.

For CCc1ccn2cc(-c3cc(-c4ccccc4)no3)nc2c1 [Hit-1], the “Reduction of TNF-α level compared with the LPS group” value [1] was 3.7 fold, the “Inhibitory effect on the IL-1β” value ([1]; compared with compound 3a) was “distinctly stronger inhibitory effect” and the “Inhibitory effect on the IL-6 level” value ([1]; compared with compound 3a) was “markedly stronger inhibitory effect”. The Kd [3] was 320 ± 10 nM, the “Effect on MIF interaction with CD74” value [4] was “potently suppressed” and the Kd [5] was 290 ± 10 nM.

Cc1ccn2cc(-c3cc(-c4ccccc4)no3)nc2c1 [Hit-2] gave a Kd [5] of 460 ± 30 nM.

In the case of c1ccc(-c2cc(-c3cn4cccnc4n3)on2)cc1 [Hit-3], the Kd [5] is reported as 540 ± 20 nM.

For Cc1nn(-c2ccccc2)nc1-c1nnc(-c2ccc(Cl)cc2)o1 [Hit-4], the Kd [5] was 750 ± 60 nM.

Compound Cc1nn(-c2ccccc2)nc1-c1nnc(-c2ccccc2)o1 [Hit-5] has a Kd [5] of 810 ± 40 nM.

Compound Cc1nn(-c2ccccc2)nc1-c1nnc(-c2ccc(C(F)(F)F)cc2)o1 [Hit-6] has a Kd [5] of 720 ± 50 nM.

For COC(=O)CC1CC(c2ccc(O)cc2)=NO1 (centres unmarked) [ISO-1], the “Release of pro-inflammatory factors induced by LPS (TNF-α, IL-6, IL-1β)” value [2] is listed as “suppress the release”.
